We go through 10 compounds from US11667631B2, “FGFR4 inhibitor, preparation method therefor, and applications thereof” (Jiangsu Hansoh Pharmaceutical Group Co., Ltd., priority 2016, dated 2023).

One data set concerns the target FGFR1 kinase (Homo sapiens (Human), UniProt P11362). Description: Enzymologic experiment of FGFR1 (TR-FRET). Conditions: FGFR1 kinase activity. It is filed as biochemical. As for the experimental part: In this experiment, the inhibitory effect of the compounds on FGFR1 kinase activity was tested by a fluorescence resonance energy transfer (TR-FRET) method, and the half maximal inhibitory concentration (IC50) of the compounds on the FGFR1 kinase activity was determined.
1) 1˜5 μL of FGFR1 enzyme solution was added to a 384-well plate, and the final concentration of the enzyme was 0.1˜5 nM.
2) 1˜5 μL of diluted solution in gradient of the compound was added.
3) 1˜5 μL of a substrate mixture containing substrate polypeptide with a final concentration of 5˜50 nM and ATP with a final concentration of 10˜200 μM was added.
4) The mixture was incubated for 0.5˜3 hours at room temperature.
5) 10 μL of EDTA and a test solution comprising labeled antibody were added, and the plate was incubated for 1 hour at room temperature.
6) The fluorescence signal values of each plate were determined by a microplate reader at 665 nm.
7) The inhibition rates were calculated according to the fluorescence signal values.
8) The IC50 of the compound was obtained by curve fitting according to the inhibition rates at different concentrations, and the enzymatic activity of the specific example compounds is shown in Table 1.

The nature of data set [1]: Pharmacokinetic (PK) analysis in rats. The class given is in vivo, Sprague Dawley (SD) rats. The note with it: SD rats, single intragastric administration, 5 mg/kg; for Peak Time tmax: (sampling in hours); for AUC(0-t) / AUC(0-inf) / half-life / MRT / Cmax: Sprague-Dawley, rat, plasma, po; for AUC(0-t): read-out: Area Under Curve AUC0-t; for AUC(0-inf): read-out: Area Under Curve AUC0-∞; for half-life: read-out: Half-Time t1/2 (converted); for MRT: read-out: Mean Residence Time MRT; for Cmax: read-out: Plasma Concentration Cmax. As for the experimental part: 1) 0.2 ml of intravenous blood was collected and placed in a K2EDTA test tube. The blood was centrifuged at room temperature at the speed of 1000˜3000×g for 5˜20 minutes to isolate the plasma, which was then stored at −80° C.
2) 160 μL of acetonitrile was added to 40 μL of plasma sample for precipitation, and then the mixture was centrifuged at the speed of 500˜2000×g for 5˜20 minutes.
3) 100 μL of treated solution was taken, and the concentration of the test compound was analyzed by LC/MS/MS. The LC/MS/MS analytical instrument was AB Sciex API 4000. • Liquid chromatography analysis: • Condition of Liquid chromatography: Shimadzu LC-20AD pump • Chromatographic column: phenomenex Gemiu 5 um C18 50×4.6 mm • Mobile phase: Solution A is 0.1% formic acid aqueous solution, and Solution B is acetonitrile • Flow rate: 0.8 mL/min • Elution time: 0-3.5 minutes, the eluent was used as follows: […]

Another data set relates to Hep 3B cells. Description: Inhibition of Hep 3B cell proliferation (CellTiter-Glo). It is filed as cell-based. The note with it: Homo sapiens, Hep3B, 72 h, read-out: Hep 3B IC50, Hep 3B cell proliferation, 72 hours, CellTiter-Glo. The method, then:
In this experiment, the inhibitory effect of the compounds on Hep 3B cell proliferation was tested by a CellTiter-Glo method, and the half maximal inhibitory concentration (IC50) of the compounds on the activity of cell proliferation was determined.
1) A 96-well cell culture plate was seeded with 50˜100 μL of Hep 3B cell suspension at a density of 1˜5×10^4 cells/ml. The culture plate was incubated in an incubator for 16˜24 hours (37° C., 5% CO2).
(§1) 2) Different concentrations of the test compound in a gradient dilution were added to the cells in the culture plate. The culture plate was incubated in an incubator for 72 hours (37° C., 5% CO2).
(§2) 3) 50˜100 μL of CellTiter-Glo reagent were added to each well. Then, the culture plate was shaken or left to stand for 5˜30 minutes at room temperature.
(§3) 4) The chemiluminescence signal values of each plate were determined by a microplate reader.
(§4) 5) The inhibition rates were calculated according to the chemiluminescence signal values.
(In general: In ATP-based viability assays light output follows the ATP content of the culture.)

In the next data set the test system is HuH-7 cells. Put plainly: Inhibition of HuH-7 cell proliferation (CellTiter-Glo). The note with it: Homo sapiens, Huh-7, 72 h, read-out: HuH-7 IC50. The class given is cell-based. The method, then:
In this experiment, the inhibitory effect of the compounds on HuH-7 cell proliferation was tested by a CellTiter-Glo method, and the half maximal inhibitory concentration (IC50) of the compounds on the activity of cell proliferation was determined.
1) A 96-well cell culture plate was seeded with 50˜100 μL of HuH-7 cell suspension at a density of 1˜5×10^4 cells/ml. The culture plate was incubated in an incubator for 16˜24 hours (37° C., 5% CO2).
as §1
3) 50˜100 μL of CellTiter-Glo reagent was added to each well. Then, the culture plate was shaken or left to stand for 5˜30 minutes at room temperature.
as §3, §4
(§5) 6) The IC50 of the compound was obtained by curve fitting according to the inhibition rates at different concentrations, and the cell activity of the specific example compounds is shown in Table 2.

In the next data set the test system is SK-HEP-1 cells. Put plainly: Inhibition of SK-HEP-1 cell proliferation (CellTiter-Glo). The note with it: Homo sapiens, SK-HEP1, 72 h, read-out: SK-HEP-1 IC50. The class given is cell-based. The method, then: In this experiment, the inhibitory effect of the compounds on SK-HEP-1 cell proliferation was tested by a CellTiter-Glo method, and the half maximal inhibitory concentration (IC50) of the compounds on the activity of cell proliferation was determined.
1) A 96-well cell culture plate was seeded with 50˜100 μL of SK-HEP-1 cell suspension at a density of 1˜5×10^4 cells/ml. The culture plate was incubated in an incubator for 16˜24 hours (37° C., 5% CO2).
as §1, §2, §3, §4, §5

FGFR1 kinase, sequence (P11362 22-822): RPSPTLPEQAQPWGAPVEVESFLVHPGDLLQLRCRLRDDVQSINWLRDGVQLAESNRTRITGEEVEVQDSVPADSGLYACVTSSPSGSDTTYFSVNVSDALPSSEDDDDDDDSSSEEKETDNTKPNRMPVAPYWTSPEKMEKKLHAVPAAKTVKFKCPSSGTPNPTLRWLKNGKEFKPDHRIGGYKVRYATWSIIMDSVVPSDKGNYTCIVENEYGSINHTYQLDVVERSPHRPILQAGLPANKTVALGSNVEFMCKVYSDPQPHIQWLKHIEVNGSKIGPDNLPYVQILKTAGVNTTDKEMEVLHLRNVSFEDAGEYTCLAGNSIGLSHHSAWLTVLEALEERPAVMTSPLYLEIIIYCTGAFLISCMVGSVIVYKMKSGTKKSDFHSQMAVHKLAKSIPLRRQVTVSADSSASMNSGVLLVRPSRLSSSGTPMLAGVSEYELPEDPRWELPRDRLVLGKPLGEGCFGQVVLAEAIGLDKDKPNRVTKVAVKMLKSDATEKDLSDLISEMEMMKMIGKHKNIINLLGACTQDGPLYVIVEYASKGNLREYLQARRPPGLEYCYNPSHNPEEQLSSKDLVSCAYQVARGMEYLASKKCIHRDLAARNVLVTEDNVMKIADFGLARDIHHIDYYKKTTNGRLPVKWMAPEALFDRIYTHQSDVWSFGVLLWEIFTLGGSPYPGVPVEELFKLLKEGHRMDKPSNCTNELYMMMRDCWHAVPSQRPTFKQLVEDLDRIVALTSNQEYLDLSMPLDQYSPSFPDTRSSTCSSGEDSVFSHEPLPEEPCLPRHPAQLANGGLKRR

With `CO[C@@H]1CCC[C@H]1Nc1cc(NC(=O)N2CCCc3cc(CN4CCOCC4=O)c(C=O)nc32)ncc1C#N` [Example 60, N-(5-Cyano-4-(((1R,2R)-2-methoxycyclopentyl)amino)pyridin-2-yl)-7-formyl-6-((3-carbonylmorpholino)methyl)-3,4-dihydro-1,8-naphthyridin-1(2H)-carboxamide], at FGFR1 kinase, the IC50 was above 10 µM. For the same compound, in data set [1], the Peak Time tmax is 2 h, the AUC(0-t) stood at 3770 ng·h/mL, the AUC(0-inf) was determined as 3790 ng·h/mL and the half-life was 52.8 min. In data set [1], the MRT (as a rule, the average time that molecules of a dose stay in the body) was determined as 2.26 h and the Cmax was 1300 ng/mL. Besides, the IC50 with Hep 3B cells was 1 nM. Further, the IC50 in the data set with HuH-7 cells was 2.7 nM. Also, the IC50 with SK-HEP-1 cells was above 10 µM.
`COCC1(Nc2cc(NC(=O)N3CCCc4cc(CN5CCOCC5=O)c(C=O)nc43)ncc2C#N)CC1` [Example 11] yielded an IC50 at FGFR1 kinase above 10 µM. In addition, in data set [1], the Peak Time tmax is 2 h, the AUC(0-t) came out at 3890 ng·h/mL, the AUC(0-inf) was found to be 3960 ng·h/mL and the half-life is 69.6 min. In data set [1], the mean residence time MRT came out at 2.68 h and the Cmax was 1540 ng/mL. The IC50 in the data set on Hep 3B cells worked out at 8.4 nM. Further, in the data set on HuH-7 cells, the IC50 turned out to be 12.4 nM. Moreover, the IC50 with SK-HEP-1 cells is above 10 µM.
`CO[C@@H]1CCN(c2cc(NC(=O)N3CCCc4cc(CN5CCOC5=O)c(C=O)nc43)ncc2C#N)C1` [Example 41, (R)-N-(5-Cyano-4-(3-methoxypyrrolidin-1-yl)pyridin-2-yl)-7-formyl-6-((2-carbonyloxazolidin-3-yl)methyl)-3,4-dihydro-1,8-naphthyridin-1(2H)-carboxamide] yielded an IC50 against FGFR1 kinase above 10 µM. In data set [1], the Peak Time tmax was 2 h, the AUC(0-t) was 2880 ng·h/mL, the AUC(0-inf) is 2960 ng·h/mL and the half-life was 70.2 min. In addition, in data set [1], the MRT is 3.12 h and the Cmax was 1920 ng/mL. Moreover, the IC50 with Hep 3B cells stood at 9.9 nM. Moreover, the IC50 in the data set on HuH-7 cells came to 10.2 nM. In addition, in the data set with SK-HEP-1 cells, the IC50 was above 10 µM.
`CO[C@H]1CCN(c2cc(NC(=O)N3CCCc4cc(CN5CCOCC5=O)c(C=O)nc43)ncc2C#N)C1` [Example 51, (S)-N-(5-Cyano-4-(3-methoxypyrrolidin-1-yl)pyridin-2-yl)-7-formyl-6-((3-carbonylmorpholino)methyl)-3,4-dihydro-1,8-naphthyridin-1(2H)-carboxamide] yielded an IC50 against FGFR1 kinase above 10 µM. Besides, in data set [1], the Peak Time tmax stood at 2 h, the AUC(0-t) turned out to be 3720 ng·h/mL, the AUC(0-inf) was found to be 3730 ng·h/mL and the half-life is 69 min. In data set [1], the MRT turned out to be 3.84 h and the Cmax turned out to be 1020 ng/mL. Also, in the data set on Hep 3B cells, the IC50 was 25.1 nM. For the same compound, the IC50 with HuH-7 cells came out at 27.5 nM. Besides, in the data set with SK-HEP-1 cells, the IC50 was above 10 µM.
As to `CO[C@@H]1CCCC1Oc1cc(NC(=O)N2CCCc3cc(CN4CCOCC4=O)c(C=O)nc32)ncc1C#N` (stereo partly drawn) [Example 16, N-(5-Cyano-4-(((trans)-2-methoxycyclopentyl)oxy)pyridin-2-yl)-7-formyl-6-((3-carbonylmorpholino)methyl)-3,4-dihydro-1,8-naphthyridin-1(2H)-carboxamide], the IC50 on FGFR1 kinase was above 10 µM. For the same compound, in data set [1], the Peak Time tmax was 2 h, the AUC(0-t) is 5520 ng·h/mL, the AUC(0-inf) worked out at 5610 ng·h/mL and the half-life was 61.2 min. Besides, in data set [1], the MRT turned out to be 2.96 h and the Cmax stood at 1600 ng/mL. For the same compound, the IC50 in the data set with Hep 3B cells came out at 10.5 nM. Also, in the data set with HuH-7 cells, the IC50 turned out to be 13.2 nM. For the same compound, in the data set with SK-HEP-1 cells, the IC50 was above 10 µM.
`CO[C@@H]1CCC1Oc1cc(NC(=O)N2CCCc3cc(CN4CCOCC4=O)c(C=O)nc32)ncc1C#N` (stereo partly drawn) [Example 61, N-(5-Cyano-4-trans-((1,2)-2-methoxycyclobutoxy)pyridin-2-yl)-7-formyl-6-((3-carbonylmorpholino)methyl)-3,4-dihydro-1,8-naphthyridin-1(2H)-carboxamide] gave an IC50 on FGFR1 kinase above 10 µM. Besides, in data set [1], the Peak Time tmax came out at 2 h, the AUC(0-t) was 2110 ng·h/mL, the AUC(0-inf) amounted to 2120 ng·h/mL and the half-life was 45 min. For the same compound, in data set [1], the mean residence time (MRT) worked out at 2.96 h and the Cmax came to 2640 ng/mL. For the same compound, the IC50 in the data set on Hep 3B cells worked out at 3.7 nM. Besides, in the data set with HuH-7 cells, the IC50 is 6.2 nM. In addition, the IC50 in the data set with SK-HEP-1 cells was above 10 µM.
On to `CO[C@H]1CCN(c2cc(NC(=O)N3CCCc4cc(CN5CCOC5=O)c(C=O)nc43)ncc2C#N)C1` [Example 40, (S)-N-(5-Cyano-4-(3-methoxypyrrolidin-1-yl)pyridin-2-yl)-7-formyl-6-((2-carbonyloxazolidin-3-yl)methyl)-3,4-dihydro-1,8-naphthyridin-1(2H)-carboxamide], for which the IC50 against FGFR1 kinase was above 10 µM. Moreover, in data set [1], the Peak Time tmax came to 2 h, the AUC(0-t) is 1080 ng·h/mL, the AUC(0-inf) came out at 1100 ng·h/mL and the half-life was 63 min. In data set [1], the mean residence time MRT was determined as 3.36 h and the Cmax was determined as 1560 ng/mL. Besides, the IC50 with Hep 3B cells came out at 38.7 nM. In the data set on HuH-7 cells, the IC50 turned out to be 29.6 nM. Also, in the data set on SK-HEP-1 cells, the IC50 is above 10 µM.
As to `COc1ccncc1Nc1cc(NC(=O)N2CCCc3cc(CN4CCOCC4=O)c(C=O)nc32)ncc1C#N` [Example 58, N-(5-Cyano-4-((4-methoxypyridin-3-yl)amino)pyridin-2-yl)-7-formyl-6-((3-carbonylmorpholino)methyl)-3,4-dihydro-1,8-naphthyridin-1(2H)-carboxamide], the IC50 against FGFR1 kinase is above 10 µM; with Hep 3B cells, 6.9 nM; in the data set with HuH-7 cells, 20.7 nM; in the data set with SK-HEP-1 cells, above 10 µM.
As for `COC1(CNc2cc(NC(=O)N3CCCc4cc(CN5CCOCC5=O)c(C=O)nc43)ncc2C#N)CC1` [Example 9, N-(5-Cyano-4-(((1-methoxycyclopropyl)methyl)amino)pyridin-2-yl)-7-formyl-6-((3-carbonylmorpholino)methyl)-3,4-dihydro-1,8-naphthyridin-1(2H)-carboxamide], the IC50 is above 10 µM at FGFR1 kinase, 1.4 nM in the data set with Hep 3B cells, 9.1 nM in the data set on HuH-7 cells and above 10 µM in the data set on SK-HEP-1 cells.
On to `N#Cc1cnc(NC(=O)N2CCCc3cc(CN4CCCCOC4=O)c(C=O)nc32)cc1N[C@@H]1CCOC1` [Example 34, (R)-N-(5-Cyano-4-((tetrahydrofuran-3-yl)amino)pyridin-2-yl)-7-formyl-6-((2-carbonyl-1,3-oxazepin-3-yl)methyl)-3,4-dihydro-1,8-naphthyridin-1(2H)-carboxamide], for which the IC50 is above 10 µM at FGFR1 kinase, 2.3 nM with Hep 3B cells, 4.9 nM with HuH-7 cells and above 10 µM with SK-HEP-1 cells.
